Measurements: ChEMBL document CHEMBL3351358, “LPM7 Inhibitors May Potentially Treat Autoimmune Diseases” (ACS Med Chem Lett, 2014)

How the values were obtained:
[1] = Inhibition of LPM7 beta 5i subunit in human Ramos cells using ac-(anw)2-r110 substrate by fluorogenic assay; type: cell-based
[2] = Inhibition of LPM7 beta 5c subunit in human Ramos cells using rh110-(wla)2 substrate by fluorogenic assay; type: cell-based
[3] = Inhibition of LPM7 beta 1i subunit in human Ramos cells using rh110-(pal)2 substrate by fluorogenic assay; type: cell-based
[4] = Inhibition of LPM7 beta 1c subunit in human Ramos cells using rh110-(Ile)2 substrate by fluorogenic assay; type: cell-based
[5] = Inhibition of LPM7 in CpG type A-stimulated human PBMCs by CXCL10/IP10 detection based PBMC IP-10 assay

| IC50 [1] [nM] | IC50 [2] [nM] | IC50 [3] [nM] | IC50 [4] [nM] | EC50 [5] [nM] | SMILES |
| --- | --- | --- | --- | --- | --- |
| 18 | 560 | 142 | 3340 | 1220 | CCCC[C@H](NC(=O)[C@H](Cc1c[nH]c2ccccc12)NC(=O)[C@H](C)NC(=O)C1=C(C)c2ccccc2C1)C(=O)C(=O)NCc1ccccc1 |
| 3 | 55 | 234 | 20000 | 695 | COc1ccc(C[C@H](NC(=O)[C@H](C)NC(=O)C2Cc3ccccc3C2)C(=O)N[C@@H](Cc2ccccc2)C(=O)C(=O)NCc2ccccc2)cc1 |
| 4 | 14 | 968 | 18100 | 379 | C[C@H](NC(=O)C1Cc2ccccc2C1)C(=O)N[C@@H](CCc1ccccc1)C(=O)N[C@@H](Cc1ccccc1)C(=O)C(=O)NCc1ccccc1 |
| 524 | 6160 | 2730 | 20000 | 5030 | C[C@H](NC(=O)OCc1ccccc1)C(=O)N[C@@H](CC(F)(F)F)C(=O)N[C@@H](Cc1ccccc1)C(=O)C(=O)NCc1ccccc1 |
